Reference: US20200268702A1, “METHODS OF TREATING […]” (Amarin Pharmaceuticals Ireland Limited, priority 2013, published 2020)

Legend:
[1] = test system: subjects with Age-Associated Memory Impairment; experiment: Safety and tolerability (adverse events), 6-week AAMI study; format: in vivo, human
Method: Ninety-four subjects were randomized into one of six groups: 1 g E-EPA daily (n=23), 2 g E-EPA daily (n=24), 4 g E-EPA daily (n=24), 1 g placebo daily (n=7), 2 g placebo daily (n=8), and 4 g placebo daily (n=8).
All randomized subjects that received at least 1 dose of study medication were included in the Safety Population.
Safety evaluations were based on the safety population. Safety and tolerability were assessed in terms of AEs, vital signs, 12-lead ECG, clinical laboratory data, medical history, and study drug compliance. Safety and tolerability data were presented by treatment group.

[2] = Essential fatty acid parameters in plasma and RBC, 6-week AAMI study; format: in vivo, human
Method: Blood samples (10 mL) were collected at Visit 1 (screening) and at Visits 4, 5 and 6. Analysis was performed by MSR Lipid Analysis, Scottish Crop Research Institute, Dundee, UK. The screening sample acted as baseline for the EFA measurements. Lipid was extracted from plasma, serum and RBC suspensions and converted into fatty acid methyl esters which were analyzed by gas chromatography to give fatty acid profiles as micrograms fatty acid per gram of sample (μgFA/g) and normalized area percent. RBC and plasma EFA data were collected at baseline, Day 14, 28 and 42 and summarized by visit for each treatment group. Change from baseline and percent change from baseline were also summarized. ANCOVA comparison of ethyl-EPA dose groups and ethyl-EPA versus placebo was performed.

CC/C=C\C/C=C\C/C=C\C/C=C\C/C=C\CCCC(=O)OCC [AMR101, ethyl eicosapentaenoate]
nausea Probably Related to the study drug ([1]; 1 g): One
nausea Possibly Related to the study drug, subjects ([1]; 1 g cohort): two
nausea Possibly Related to the study drug, subjects ([1]; 2 g cohort): one
SAE reported ([1]; 2 g treatment group): One
subjects discontinued due to TEAEs ([1]; 2 g treatment group): 2 subjects
Serious Adverse Event (worsening epigastric chest pain), relation to study drug ([1]; 2 g, one subject): unrelated to the study drug
diarrhea Probably Related to the study drug ([1]; 4 g): Another subject
nausea Possibly Related to the study drug, subjects ([1]; 4 g cohort): two
TEAEs Definitely Related to the study drug ([1]; all groups): No TEAEs were Definitely Related
deaths during the study ([1]; all groups): no deaths
treatment emergent AEs (TEAEs) reported ([1]; ethyl-EPA treatment groups (1 g, 2 g, 4 g), placebo groups 34 events): 105 events
AA, Plasma, Mean (SD) change from Baseline ([2]; 1 g daily, Day 14): −9.7 (22.20) μg/g
AA, RBC, Mean (SD) change from Baseline ([2]; 1 g daily, Day 14): −8.1 (21.95) μg/g
DGLA, Plasma, mean (SD) change from Baseline ([2]; 1 g daily, Day 14): −10.4 (10.90) μg/g
DGLA, RBC, mean (SD) change from Baseline ([2]; 1 g daily, Day 14): −2.7 (3.82) μg/g
DHA, Plasma, Mean (SD) change from Baseline ([2]; 1 g daily, Day 14): −6.4 (13.30) μg/g
DHA, RBC, Mean (SD) change from Baseline ([2]; 1 g daily, Day 14): −4.6 (9.76) μg/g
AA, Plasma, Mean (SD) change from Baseline ([2]; 1 g daily, Day 28): −11.3 (28.13) μg/g
AA, RBC, Mean (SD) change from Baseline ([2]; 1 g daily, Day 28): −17.0 (20.69) μg/g
DGLA, Plasma, mean (SD) change from Baseline ([2]; 1 g daily, Day 28): −10.6 (10.23) μg/g
DGLA, RBC, mean (SD) change from Baseline ([2]; 1 g daily, Day 28): −3.8 (3.31) μg/g
DHA, Plasma, Mean (SD) change from Baseline ([2]; 1 g daily, Day 28): −6.6 (15.53) μg/g
DHA, RBC, Mean (SD) change from Baseline ([2]; 1 g daily, Day 28): −6.4 (11.57) μg/g
AA, Plasma, Mean (SD) change from Baseline ([2]; 1 g daily, Day 42): −8.7 (31.35) μg/g
AA, RBC, Mean (SD) change from Baseline ([2]; 1 g daily, Day 42): −14.2 (27.69) μg/g
DGLA, Plasma, mean (SD) change from Baseline ([2]; 1 g daily, Day 42): −9.4 (9.41) μg/g
DGLA, RBC, mean (SD) change from Baseline ([2]; 1 g daily, Day 42): −3.5 (4.51) μg/g
DHA, Plasma, Mean (SD) change from Baseline ([2]; 1 g daily, Day 42): −5.4 (18.17) μg/g
DHA, RBC, Mean (SD) change from Baseline ([2]; 1 g daily, Day 42): −7.0 (12.20) μg/g
EPA/AA, Plasma, mean (SD) change from Baseline ([2]; 1 g daily, Day 42): 0.3
AA, Plasma, LS Mean, 1 g versus 4 g ([2]; 1 g versus 4 g): 4.2 µg/g
AA, RBC, LS Mean, 1 g versus 4 g ([2]; 1 g versus 4 g): 8.4 µg/g
DGLA, Plasma, LS mean, 1 g versus 4 g ([2]; 1 g versus 4 g): 3.7 µg/g
DGLA, RBC, LS mean, 1 g versus 4 g ([2]; 1 g versus 4 g): 1.5 µg/g
DHA, Plasma, LS mean, 1 g versus 4 g ([2]; 1 g versus 4 g): -0.8 µg/g
DHA, RBC, LS mean, 1 g versus 4 g ([2]; 1 g versus 4 g): 1.0 µg/g
AA, Plasma, Mean (SD) change from Baseline ([2]; 2 g daily, Day 14): −13.9 (22.13) μg/g
AA, RBC, Mean (SD) change from Baseline ([2]; 2 g daily, Day 14): −3.1 (25.84) μg/g
DGLA, Plasma, mean (SD) change from Baseline ([2]; 2 g daily, Day 14): −14.1 (6.88) μg/g
DGLA, RBC, mean (SD) change from Baseline ([2]; 2 g daily, Day 14): −2.6 (3.54) μg/g
DHA, Plasma, Mean (SD) change from Baseline ([2]; 2 g daily, Day 14): −5.4 (14.29) μg/g
DHA, RBC, Mean (SD) change from Baseline ([2]; 2 g daily, Day 14): −2.0 (9.46) μg/g
AA, Plasma, Mean (SD) change from Baseline ([2]; 2 g daily, Day 28): 21.6 (28.32) μg/g
AA, RBC, Mean (SD) change from Baseline ([2]; 2 g daily, Day 28): −14.1 (26.89) μg/g
DGLA, Plasma, mean (SD) change from Baseline ([2]; 2 g daily, Day 28): −16.2 (9.88) μg/g
DGLA, RBC, mean (SD) change from Baseline ([2]; 2 g daily, Day 28): −4.5 (3.58) μg/g
DHA, Plasma, Mean (SD) change from Baseline ([2]; 2 g daily, Day 28): −8.1 (15.82) μg/g
DHA, RBC, Mean (SD) change from Baseline ([2]; 2 g daily, Day 28): −6.2 (9.34) μg/g
AA, Plasma, Mean (SD) change from Baseline ([2]; 2 g daily, Day 42): −27.3 (26.76) μg/g
AA, RBC, Mean (SD) change from Baseline ([2]; 2 g daily, Day 42): −18.8 (25.62) μg/g
DGLA, Plasma, mean (SD) change from Baseline ([2]; 2 g daily, Day 42): −17.3 (9.92) μg/g
DGLA, RBC, mean (SD) change from Baseline ([2]; 2 g daily, Day 42): −5.3 (3.65) μg/g
DHA, Plasma, Mean (SD) change from Baseline ([2]; 2 g daily, Day 42): −6.0 (16.69) μg/g
DHA, RBC, Mean (SD) change from Baseline ([2]; 2 g daily, Day 42): −6.3 (9.42) μg/g
AA, Plasma, LS Mean, 2 g versus 4 g ([2]; 2 g versus 4 g): 15.6 µg/g
AA, RBC, LS Mean, 2 g versus 4 g ([2]; 2 g versus 4 g): 9.8 µg/g
DGLA, Plasma, LS mean, 2 g versus 4 g ([2]; 2 g versus 4 g): 2.5 µg/g
DGLA, RBC, LS mean, 2 g versus 4 g ([2]; 2 g versus 4 g): 1.5 µg/g
DHA, Plasma, LS mean, 2 g versus 4 g ([2]; 2 g versus 4 g): 1.5 µg/g
DHA, RBC, LS mean, 2 g versus 4 g ([2]; 2 g versus 4 g): 1.0 µg/g
AA, Plasma, Mean (SD) change from Baseline ([2]; 4 g daily, Day 14): −27.2 (28.89) μg/g
AA, RBC, Mean (SD) change from Baseline ([2]; 4 g daily, Day 14): −15.7 (26.76) μg/g
DGLA, Plasma, mean (SD) change from Baseline ([2]; 4 g daily, Day 14): −22.9 (9.00) μg/g
DGLA, RBC, mean (SD) change from Baseline ([2]; 4 g daily, Day 14): −5.3 (4.10) μg/g
DHA, Plasma, Mean (SD) change from Baseline ([2]; 4 g daily, Day 14): −10.3 (13.35) μg/g
DHA, RBC, Mean (SD) change from Baseline ([2]; 4 g daily, Day 14): −6.9 (9.13) μg/g
AA, Plasma, Mean (SD) change from Baseline ([2]; 4 g daily, Day 28): −43.7 (32.24) μg/g
AA, RBC, Mean (SD) change from Baseline ([2]; 4 g daily, Day 28): −22.8 (29.56) μg/g
DGLA, Plasma, mean (SD) change from Baseline ([2]; 4 g daily, Day 28): −24.2 (10.73) μg/g
DGLA, RBC, mean (SD) change from Baseline ([2]; 4 g daily, Day 28): −7.1 (4.63) μg/g
DHA, Plasma, Mean (SD) change from Baseline ([2]; 4 g daily, Day 28): −13.5 (14.10) μg/g
DHA, RBC, Mean (SD) change from Baseline ([2]; 4 g daily, Day 28): −8.7 (11.63) μg/g
AA, Plasma, Mean (SD) change from Baseline ([2]; 4 g daily, Day 42): −48.3 (22.20) μg/g
AA, RBC, Mean (SD) change from Baseline ([2]; 4 g daily, Day 42): −34.4 (31.44) μg/g
DGLA, Plasma, mean (SD) change from Baseline ([2]; 4 g daily, Day 42): −22.5 (10.87) μg/g
DGLA, RBC, mean (SD) change from Baseline ([2]; 4 g daily, Day 42): −8.0 (4.98) μg/g
DHA, Plasma, Mean (SD) change from Baseline ([2]; 4 g daily, Day 42): −13.8 (15.31) μg/g
DHA, RBC, Mean (SD) change from Baseline ([2]; 4 g daily, Day 42): −13.8 (13.76) μg/g
EPA, DPAn-3 and EPA/AA ratio values, change from baseline to Day 42 ([2]; plasma and RBC, 1, 2 and 4 g treatment groups): increased substantially
